These compounds were tested against human IRAK4 (Homo sapiens (Human), UniProt Q9NWZ3) (assay: IRAK4 kinase inhibition, Transcreener fluorescence polarization ADP assay). Conditions: recombinant full-length His6-IRAK4; 125 uM ATP; 90 min; Ki computed using ATP Km 642 uM.
Format: biochemical
Procedure: Compounds were assayed for inhibition of human IRAK4 and IRAK1 catalytic activity using recombinant enzyme produced from insect cells. Full-length IRAK4 protein, carrying an N-terminal His6-Tag, was obtained from Life Technologies (Carlsbad, Calif., USA). The IRAK1 construct was produced internally and was comprised of IRAK1 residues Arg194 to Ser712, preceded by an NH2-terminal His6 tag and the coding sequence for glutathione-S-transferase.

Sequence of human IRAK4 (Q9NWZ3 whole entry): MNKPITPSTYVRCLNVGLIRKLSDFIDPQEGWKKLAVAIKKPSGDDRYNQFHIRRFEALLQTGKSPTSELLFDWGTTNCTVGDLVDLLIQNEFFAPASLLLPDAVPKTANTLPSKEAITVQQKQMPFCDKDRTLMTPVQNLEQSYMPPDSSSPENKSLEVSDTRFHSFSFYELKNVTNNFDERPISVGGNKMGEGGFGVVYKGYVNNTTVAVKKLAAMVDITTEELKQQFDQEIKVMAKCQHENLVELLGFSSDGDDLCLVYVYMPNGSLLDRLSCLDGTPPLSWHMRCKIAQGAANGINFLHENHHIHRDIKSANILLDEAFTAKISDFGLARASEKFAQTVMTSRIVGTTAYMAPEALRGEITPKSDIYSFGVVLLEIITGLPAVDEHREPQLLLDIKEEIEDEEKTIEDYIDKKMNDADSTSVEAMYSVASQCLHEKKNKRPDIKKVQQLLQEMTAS

| SMILES | Ki [nM] |
| --- | --- |
| CNC(=O)[C@@]1(C)Cc2cc(NC(=O)c3cnn4cccnc34)c(N3CCOCC3)cc2O1 [Example 49, (R)—N-(2-Methyl-2-(methylcarbamoyl)-6-morpholino-2,3-dihydrobenzofuran-5-yl)pyrazolo[1,5-a]pyrimidine-3-carboxamide] | 22 |
| C[C@]1(C(F)F)Cc2cc(NC(=O)c3cnn4cccnc34)c(N3CCOCC3)cc2O1 [Example 50, (R)—N-(2-(Difluoromethyl)-2-methyl-6-morpholino-2,3-dihydrobenzofuran-5-yl)pyrazolo[1,5-a]pyrimidine-3-carboxamide] | 6.2 |
| C[C@@]1(CO)Cc2cc(NC(=O)c3cnn4cccnc34)c(N3CC[C@H](F)C3)cc2O1 [Example 56, N-[(2S)-6-[(3S)-3-Fluoropyrrolidin-1-yl]-2-(hydroxymethyl)-2-methyl-3H-benzofuran-5-yl]pyrazolo[1,5-a]pyrimidine-3-carboxamide] | 21 |
| C[C@]1(CO)Cc2cc(NC(=O)c3cnn4cccnc34)c(N3CC[C@H](F)C3)cc2O1 [Example 57, N-[(2R)-6-[(3S)-3-Fluoropyrrolidin-1-yl]-2-(hydroxymethyl)-2-methyl-3H-benzofuran-5-yl]pyrazolo[1,5-a]pyrimidine-3-carboxamide] | 60 |
| C[C@]1(CO)Cc2cc(NC(=O)c3cnn4cccnc34)c(N3CC[C@@H](F)C3)cc2O1 [Example 58, N-[(2R)-6-[(3R)-3-Fluoropyrrolidin-1-yl]-2-(hydroxymethyl)-2-methyl-3H-benzofuran-5-yl]pyrazolo[1,5-a]pyrimidine-3-carboxamide] | 36 |
| C[C@@]1(CO)Cc2cc(NC(=O)c3cnn4cccnc34)c(N3CC[C@@H](F)C3)cc2O1 [Example 59, N-[(2S)-6-[(3R)-3-Fluoropyrrolidin-1-yl]-2-(hydroxymethyl)-2-methyl-3H-benzofuran-5-yl]pyrazolo[1,5-a]pyrimidine-3-carboxamide] | 9.6 |
| CC1(C)Cc2cc(NC(=O)c3cnn4cccnc34)c(N3CCN(CCO)CC3)cc2O1 [Example 60, N-[6-[4-(2-Hydroxyethyl)piperazin-1-yl]-2,2-dimethyl-3H-benzofuran-5-yl]pyrazolo[1,5-a]pyrimidine-3-carboxamide] | 6.6 |

Second part, the compound after the results:

| Ki [nM] | SMILES |
| --- | --- |
| 9.6 | C[C@@]1(C(F)F)Cc2cc(NC(=O)c3cnn4cccnc34)c(N3CCOCC3)cc2O1 [Example 51, (S)—N-(2-(Difluoromethyl)-2-methyl-6-morpholino-2,3-dihydrobenzofuran-5-yl)pyrazolo[1,5-a]pyrimidine-3-carboxamide] |
| 3.8 | Cc1cnc2c(C(=O)Nc3cc4c(cc3N3CCC(C(C)(C)O)CC3)O[C@@](C)(CO)C4)cnn2c1 [Example 52, (R)—N-(2-(Hydroxymethyl)-6-(4-(2-hydroxypropan-2-yl)piperidin-1-yl)-2-methyl-2,3-dihydrobenzofuran-5-yl)-6-methylpyrazolo[1,5-a]pyrimidine-3-carboxamide] |
| 2.7 | Cc1cnc2c(C(=O)Nc3cc4c(cc3N3CCC(C(C)(C)O)CC3)O[C@](C)(CO)C4)cnn2c1 [Example 53, (S)—N-(2-(Hydroxymethyl)-6-(4-(2-hydroxypropan-2-yl)piperidin-1-yl)-2-methyl-2,3-dihydrobenzofuran-5-yl)-6-methylpyrazolo[1,5-a]pyrimidine-3-carboxamide] |
| 16 | C[C@]1(CO)Cc2cc(NC(=O)c3cnn4cc(F)cnc34)c(N3CCOCC3)cc2O1 [Example 54, (R)-6-Fluoro-N-(2-(hydroxymethyl)-2-methyl-6-morpholino-2,3-dihydrobenzofuran-5-yl)pyrazolo[1,5-a]pyrimidine-3-carboxamide] |
| 34 | C[C@@]1(CO)Cc2cc(NC(=O)c3cnn4cc(F)cnc34)c(N3CCOCC3)cc2O1 [Example 55, (S)-6-Fluoro-N-(2-(hydroxymethyl)-2-methyl-6-morpholino-2,3-dihydrobenzofuran-5-yl)pyrazolo[1,5-a]pyrimidine-3-carboxamide] |

Source: US10988478B1, “Pyrazolo[1,5a]pyrimidine derivatives as IRAK4 modulators” (Genentech, Inc., priority 2015, dated 2021)
